Source: patent US20230084354A1, “NUTRACEUTICAL EXTRACTS OF HIPPOPHAE RHAMNOIDES AND TERMINALIA CHEBULA AND USES THEREOF” (Biomics, LLC, priority 2020, published 2023)

Tested on: Human peripheral blood mononuclear cell (PBMC) cultures
Test: CD69 and CD25 expression in human PBMC cultures, direct effects
Assay type: cell-based
Details: direct effect, 24 hours, vs untreated control; extract at the highest dose
Procedure: Next, the immune-modulating effects of the extract were tested. Human peripheral blood mononuclear cell (PBMC) cultures were used for this testing. A set of cultures were left untreated as negative control cultures for immune activation. Triplicate sets of cultures were treated with serial dilutions of the test product. The inflammatory bacterial lipopolysaccharide LPS from E. coli was used as a positive control for activation. The cultures were incubated for 24 hours, after which the cells and the culture supernatants were harvested and used to monitor the reactions in each culture. The cells were used for immunostaining and flow cytometry, specifically to evaluate the induction of two activation markers, CD69 and CD25, on NK cells, NKT cells, T lymphocytes, and monocytes/macrophages.

Q: For Poly I:C, which “CD69 expression on NK cells” value is on record?
A: increase
